Results reported in patent publication US11492361B2, “Compounds useful in HIV therapy” (GlaxoSmithKline Intellectual Property Development Limited, priority 2018, dated 2022).
Counter-ions that a name gives are not always drawn.

These compounds were tested on Jurkat HIV-luciferase clones (assay: Jurkat latency reversal assay). Details: Homo sapiens, Jurkat, 48 h.
Assay type: cell-based
Procedure: Jurkat HIV-luciferase clones were maintained in RPMI medium 1640 (Gibco by Life Technologies) containing 10% (vol/vol) fetal bovine serum (SAFC/Sigma-Aldrich) and 25 units/mL penicillin, 25 units/mL streptomycin (Gibco by Life Technologies), and were split 1:4 every 3 to 4 days to maintain a cell density of ˜0.3 to 1 million cells/mL. The Jurkat clones were maintained with the addition of 500 nM EFV in the medium. Three Jurkat cell clones (C16, I15, and N6), each harboring one or two integrated HIV proviruses expressing the luciferase reporter gene, were added at equal amounts for a total of 5,000 cells per well to 384-well plates containing compound titrations. Dose-response testing was performed on compounds dissolved in dimethyl sulfoxide (DMSO, Fisher Scientific, Merelbeke, Belgium) dispensed in duplicate serial 3-fold, 14-point titrations using a D300e Digital Droplet Dispenser (Hewlett-Packard) to give final assay concentrations of 10 μM to 2.1 pM in 50 μL of medium at 0.5% DMSO (vol/vol) final concentration. Cells and compound were incubated at 37° C. for 48 hours, unless otherwise indicated, followed by the addition of 20 μL of Steady-Glo® Luciferase (Promega). Luminescence resulting from the induction of the virally expressed luciferase was measured using an EnVision 2102 Multilabel Plate Reader (Perkin Elmer). Dose-response relationships were analyzed with GraphPad PRISM 6 using a four-parameter logistic regression model to calculate the concentration of compound that gives half-maximal response (EC50) and the maximal percent activation compared to the vehicle control.
In the case of `CN[C@@H](C)C(=S)N[C@H]1CCS[C@H]2CC(C)(C)[C@@H](C(=O)NC3c4ccccc4CC[C@H]3C(=O)N3CCN(C(=O)[C@@H]4CCc5ccccc5C4NC(=O)[C@H]4N5C(=O)[C@@H](NC(=S)[C@H](C)NC)CCS[C@H]5CC4(C)C)CC3)N2C1=O` (stereo in doubt) [compound 8, (4S,4′S,7S,7′S,9aS,9a′S)-N,N′-((1R,1′R,2R,2′R)-(piperazine-1,4-dicarbonyl)bis(1,2,3,4-tetrahydronaphthalene-2,1-diyl))bis(8,8-dimethyl-4-((S)-2-(methylamino)propanethioamido)-5-oxooctahydropyrrolo[2,1-b][1,3]thiazepine-7-carboxamide) dihydrochloride], the EC50 is reported as 2.4 nM.
With `CN[C@@H](C)C(=O)NC1CCS[C@H]2CC(C)(C)[C@@H](C(=O)N[C@H]3c4ccccc4CC[C@H]3C(=O)NCc3ccc(CNC(=O)[C@@H]4CCc5ccccc5C4NC(=O)[C@H]4N5C(=O)[C@@H](NC(=O)[C@H](C)NC)CCS[C@H]5CC4(C)C)cc3)N2C1=O` (stereo in doubt) [compound 9, (4S,4′S,7S,7′S,9aS,9a′S)-N,N′-((1R,1′R,2R,2′R)-(((1,4-phenylenebis(methylene))bis(azanediyl))bis(carbonyl))bis(1,2,3,4-tetrahydronaphthalene-2,1-diyl))bis(8,8-dimethyl-4-((S)-2-(methylamino)propanamido)-5-oxooctahydropyrrolo[2,1-b][1,3]thiazepine-7-carboxamide) dihydrochloride] the EC50 was 90.3 nM.
Work on `CN[C@@H](C)C(=S)NC1CCS[C@H]2CC(C)(C)[C@@H](C(=O)N[C@H]3c4ccccc4CC[C@H]3C(=O)NCc3ccc(CNC(=O)[C@@H]4CCc5ccccc5C4NC(=O)[C@H]4N5C(=O)[C@@H](NC(=S)[C@H](C)NC)CCS[C@H]5CC4(C)C)cc3)N2C1=O` (stereo in doubt) [compound 10, (4S,4′S,7S,7′S,9aS,9a′S)-N,N′-((1R,1′R,2R,2′R)-(((1,4-phenylenebis(methylene))bis(azanediyl))bis(carbonyl))bis(1,2,3,4-tetrahydronaphthalene-2,1-diyl))bis(8,8-dimethyl-4-((S)-2-(methylamino)propanethioamido)-5-oxooctahydropyrrolo[2,1-b][1,3]thiazepine-7-carboxamide)] yielded an EC50 of 43.4 nM.
For `CN[C@@H](C)C(=O)N[C@H]1CCS[C@H]2CC(C)(C)[C@@H](C(=O)Nc3ccc(Cc4ccc(NC(=O)[C@H]5N6C(=O)[C@@H](NC(=O)[C@H](C)NC)CCS[C@H]6CC5(C)C)cc4)cc3)N2C1=O` [compound 1, (4S,4′S,7S,7′S,9aS,9a′S)-N,N′-(methylenebis(4,1-phenylene))bis(8,8-dimethyl-4-((S)-2-(methylamino)propanamido)-5-oxooctahydropyrrolo[2,1-b][1,3]thiazepine-7-carboxamide)], the EC50 was 47 nM.
`CN[C@@H](C)C(=O)N[C@H]1CCS[C@H]2CC(C)(C)[C@@H](C(=O)Nc3ccccc3CCc3ccccc3NC(=O)[C@H]3N4C(=O)[C@@H](NC(=O)[C@H](C)NC)CCS[C@H]4CC3(C)C)N2C1=O` [compound 3, (4S,4′S,7S,7′S,9aS,9a′S)-N,N′-(ethane-1,2-diylbis(2,1-phenylene))bis(8,8-dimethyl-4-((S)-2-(methylamino)propanamido)-5-oxooctahydropyrrolo[2,1-b][1,3]thiazepine-7-carboxamide) dihydrochloride] showed an EC50 of 80.5 nM.
With `CN[C@@H](C)C(=O)N[C@H]1CCS[C@H]2CC(C)(C)[C@@H](C(=O)Nc3ccc(CCc4ccc(NC(=O)[C@H]5N6C(=O)[C@@H](NC(=O)[C@H](C)NC)CCS[C@H]6CC5(C)C)cc4)cc3)N2C1=O` [compound 5, (4S,4′S,7S,7′S,9aS,9a′S)-N,N′-(ethane-1,2-diylbis(4,1-phenylene))bis(8,8-dimethyl-4-((S)-2-(methylamino)propanamido)-5-oxooctahydropyrrolo[2,1-b][1,3]thiazepine-7-carboxamide) ditrifluoroacetate] the EC50 was 53.6 nM.
`CN[C@@H](C)C(=S)N[C@H]1CCS[C@H]2CC(C)(C)[C@@H](C(=O)N[C@H]3c4ccccc4C[C@H]3OCC#CC#CCO[C@@H]3Cc4ccccc4[C@@H]3NC(=O)[C@H]3N4C(=O)[C@@H](NC(=S)[C@H](C)NC)CCS[C@H]4CC3(C)C)N2C1=O` [compound 15, (4S,4′S,7S,7′S,9aS,9a′S)-N,N′-((1S,1′S,2R,2′R)-(hexa-2,4-diyne-1,6-diylbis(oxy))bis(2,3-dihydro-1H-indene-2,1-diyl))bis(8,8-dimethyl-4-((S)-2-(methylamino)propanethioamido)-5-oxooctahydropyrrolo[2,1-b][1,3]thiazepine-7-carboxamide)] was tested, and the EC50 was 15.3 nM.
`CN[C@@H](C)C(=O)N[C@H]1CCS[C@H]2CC(C)(C)[C@@H](C(=O)N[C@H]3c4ccccc4C[C@H]3OCCCCO[C@@H]3Cc4ccccc4[C@@H]3NC(=O)[C@H]3N4C(=O)[C@@H](NC(=O)[C@H](C)NC)CCS[C@H]4CC3(C)C)N2C1=O` [compound 16, (4S,4′S,7S,7′S,9aS,9a′S)-N,N′-((1S,1′S,2R,2′R)-(butane-1,4-diylbis(oxy))bis(2,3-dihydro-1H-indene-2,1-diyl))bis(8,8-dimethyl-4-((S)-2-(methylamino)propanamido)-5-oxooctahydropyrrolo[2,1-b][1,3]thiazepine-7-carboxamide)] showed an EC50 of 10.1 nM.
Compound `CN[C@@H](C)C(=S)N[C@H]1CCS[C@H]2CC(C)(C)[C@@H](C(=O)N[C@H]3c4ccccc4C[C@H]3OCCCCO[C@@H]3Cc4ccccc4[C@@H]3NC(=O)[C@H]3N4C(=O)[C@@H](NC(=S)[C@H](C)NC)CCS[C@H]4CC3(C)C)N2C1=O` [compound 17, (4S,4′S,7S,7′S,9aS,9a′S)-N,N′-((1S,1′S,2R,2′R)-(butane-1,4-diylbis(oxy))bis(2,3-dihydro-1H-indene-2,1-diyl))bis(8,8-dimethyl-4-((S)-2-(methylamino)propanethioamido)-5-oxooctahydropyrrolo[2,1-b][1,3]thiazepine-7-carboxamide) dihydrochloride] has an EC50 of 20.7 nM.
For `CN[C@@H](C)C(=O)N[C@H]1CCS[C@H]2CC(C)(C)[C@@H](C(=O)N[C@H]3c4ccccc4C[C@H]3OCCOCCO[C@@H]3Cc4ccccc4[C@@H]3NC(=O)[C@H]3N4C(=O)[C@@H](NC(=O)[C@H](C)NC)CCS[C@H]4CC3(C)C)N2C1=O` [compound 18, (4S,4′S,7S,7′S,9aS,9a′S)-N,N′-((1S,1′S,2R,2′R)-((oxybis(ethane-2,1-diyl))bis(oxy))bis(2,3-dihydro-1H-indene-2,1-diyl))bis(8,8-dimethyl-4-((S)-2-(methylamino)propanamido)-5-oxooctahydropyrrolo[2,1-b][1,3]thiazepine-7-carboxamide) dihydrochloride], the EC50 was 22.3 nM.
Work on `CN[C@@H](C)C(=S)N[C@H]1CCS[C@H]2CC(C)(C)[C@@H](C(=O)N[C@H]3c4ccccc4C[C@H]3OCCOCCO[C@@H]3Cc4ccccc4[C@@H]3NC(=O)[C@H]3N4C(=O)[C@@H](NC(=S)[C@H](C)NC)CCS[C@H]4CC3(C)C)N2C1=O` [compound 19, (4S,4′S,7S,7′S,9aS,9a′S)-N,N′-((1S,1′S,2R,2′R)-((oxybis(ethane-2,1-diyl))bis(oxy))bis(2,3-dihydro-1H-indene-2,1-diyl))bis(8,8-dimethyl-4-((S)-2-(methylamino)propanethioamido)-5-oxooctahydropyrrolo[2,1-b][1,3]thiazepine-7-carboxamide) dihydrochloride] yielded an EC50 of 9.4 nM.
For `CN[C@@H](C)C(=S)N[C@H]1CCS[C@H]2CC(C)(C)[C@@H](C(=O)N[C@H]3c4ccccc4C[C@H]3OCCCCCCO[C@@H]3Cc4ccccc4[C@@H]3NC(=O)[C@H]3N4C(=O)[C@@H](NC(=S)[C@H](C)NC)CCS[C@H]4CC3(C)C)N2C1=O` [compound 21, (4S,4′S,7S,7′S,9aS,9a′S)-N,N′-((1S,1′S,2R,2′R)-(hexane-1,6-diylbis(oxy))bis(2,3-dihydro-1H-indene-2,1-diyl))bis(8,8-dimethyl-4-((S)-2-(methylamino)propanethioamido)-5-oxooctahydropyrrolo[2,1-b][1,3]thiazepine-7-carboxamide)], the EC50 was 13 nM.
`CN[C@@H](C)C(=O)N[C@H]1CCS[C@H]2CC(C)(C)[C@@H](C(=O)N[C@H]3c4ccccc4C[C@H]3OCc3ccc(CO[C@@H]4Cc5ccccc5[C@@H]4NC(=O)[C@H]4N5C(=O)[C@@H](NC(=O)[C@H](C)NC)CCS[C@H]5CC4(C)C)cc3)N2C1=O` [compound 22, (4S,4′S,7S,7′S,9aS,9a′S)-N,N′-((1S,1′S,2R,2′R)-((1,4-phenylenebis(methylene))bis(oxy))bis(2,3-dihydro-1H-indene-2,1-diyl))bis(8,8-dimethyl-4-((S)-2-(methylamino)propanamido)-5-oxooctahydropyrrolo[2,1-b][1,3]thiazepine-7-carboxamide)] was tested, and the EC50 was 8.8 nM.
Compound `CN[C@@H](C)C(=S)N[C@H]1CCS[C@H]2CC(C)(C)[C@@H](C(=O)N[C@H]3c4ccccc4C[C@H]3OCc3ccc(CO[C@@H]4Cc5ccccc5[C@@H]4NC(=O)[C@H]4N5C(=O)[C@@H](NC(=S)[C@H](C)NC)CCS[C@H]5CC4(C)C)cc3)N2C1=O` [compound 23, (4S,4′S,7S,7′S,9aS,9a′S)-N,N′-((1S,1′S,2R,2′R)-((1,4-phenylenebis(methylene))bis(oxy))bis(2,3-dihydro-1H-indene-2,1-diyl))bis(8,8-dimethyl-4-((S)-2-(methylamino)propanethioamido)-5-oxooctahydropyrrolo[2,1-b][1,3]thiazepine-7-carboxamide)] has an EC50 of 55.5 nM.
